Laboratory results taken from patent US9463256B2, “Pretargeting kit, method and agents used therein” (KONINKLIJKE PHILIPS N.V., priority 2010, dated 2016).

Experiments:
[1] = Second order kinetic constants of the reactions between CC49-TCO constructs and ^177Lu-28; assay type: physicochemical; settings: for Second order kinetic constant: new TCOs conjugated to CC49, reaction with ^177Lu-28, procedures of Example 5; for Second order kinetic constant, No Spacer / Second order kinetic constant, PEG10 Spacer: TCO conjugated to CC49, reaction with ^177Lu-28 in PBS, pH 7.4 at 37° C.
Experimental: Typically, 1 mg CC49 (5 mg/mL solution in PBS) was modified with 0.6 molar (for kinetic measurements) or 10 molar eq. (for in vivo studies) of TCO-NHS constructs in a total volume of 250 μL PBS. The pH was adjusted to 9 with 1 M sodium carbonate buffer. The reactions were carried out under agitation for 30 min at RT in the dark. Subsequently, the TCO-modified mAbs were extensively washed with PBS using Amicon Ultra-15 centrifugal devices. The numbers of TCO groups per antibody were determined with a tetrazine titration, outlined below.
Tetrazine-DOTA 28 was radiolabeled with carrier-added ^177Lu. mAb (25 μg) modified with ca. 0.6 molar eq. TCO was reacted with 3 molar eq. of ^177Lu-28 (0.5 nM). mAb (25 μg) modified with ca. 10 molar eq. TCO was reacted with 15 molar eq. of ^177Lu-28 (2.5 nM). The reactions were carried out in 50 μL PBS pH 7.4 at 37° C. for 10 min. The reaction mixtures were analyzed by SDS-PAGE and phosphor imager and the reaction yields were determined from the radioactivity in the bands corresponding to the mAb. The counts were quantified with AIDA Image Analyzer software (Raytest).
Tetrazine-DOTA 28 was radiolabeled with carrier-added ^177Lu at a specific activity of 3 MBq/μg. ^177Lu-28 (33 nM) was reacted with increasing concentrations of CC49 modified with 1 eq. of TCO (0.33, 1, and 1.67 μM) in 200 μL PBS, pH 7.4 at 37° C. for 5 min. At selected times (15, 30, 45, 60, 90, 120, 180, and 300 sec) a 20 μL sample was withdrawn and quenched with tetrazine 6 (FIG. 5; described in Rossin et al. Angew Chem Int Ed 2010, 49, 3375) (1.5 μL, 5 mg/mL in DMF). Aliquots of each mixture were analyzed by SDS-PAGE and phosphor imager and the cycloaddition yields were determined from the radioactivity in the bands corresponding to the mAb. The counts were quantified with AIDA Image Analyzer software (Raytest).
The newly synthesized TCO constructs were evaluated with respect to their reactivity towards tetrazine 28. The procedures are described in Example 5.

LS174T tumor model [2] = experiment: Biodistribution of ^177Lu-tetrazine 28 in tumor bearing mice pretargeted with CC49-TCO 44b; assay type: in vivo, Nude female Balb/C mice; settings: 3 h after injection, 50 h after ^125I-CC49-TCO-44b, two doses of clearing agent
Experimental: (§1) LS174T tumor model. The human colon cancer cell line LS174T was obtained from the ATCC and maintained in Eagle's minimal essential medium (Sigma) supplemented with 10% heat inactivated fetal calf serum (Gibco), penicillin (100 U/mL), streptomycin (100 μg/mL) and 2 mM Glutamax. Nude female Balb/C mice (20-25 g body weight, Charles River Laboratories) were inoculated subcutaneously with 5×10^6 cells in 100 μL sterile PBS.
Tumor-bearing mice (see Methods; 100 mm^3 tumor size; n=4) were injected with ^125I-CC49 functionalized with 7.5 TCO 44b groups (100 μg/mouse, ca. 0.2 MBq). Thirty and 48 hours post-mAb injection the mice received one dose of clearing agent (galactose-MSA-tetrazine, 160 μg/dose) followed 2 h later by ^177Lu-tetrazine 28 (10 eq. with respect to the mAb, ca. 0.5 MBq). Three hours post-tetrazine injection the mice were anesthetized and sacrificed by cervical dislocation, blood was withdrawn by heart puncture, organs and tissues of interest were harvested and blotted dry. All collected samples were weighed and added with 1 mL PBS. The sample radioactivity was measured in a gamma-counter with a dual-isotope protocol (10-80 keV window for ^125I and 155-380 keV window for ^177Lu) along with standards to determine the percent injected dose per gram tissue (% ID/g).

LS174T tumor model [3] = experiment: Biodistribution experiments in tumor bearing mice pretargeted with CC49-TCO constructs; assay type: in vivo, Nude female Balb/C mice; settings: for ^177Lu-tetrazine in Blood / ^177Lu-tetrazine in Bone / ^177Lu-tetrazine in Brain / ^177Lu-tetrazine in Heart / ^177Lu-tetrazine in Kidney / ^177Lu-tetrazine in Liver / ^177Lu-tetrazine in Lung / ^177Lu-tetrazine in Muscle / ^177Lu-tetrazine in Spleen / ^177Lu-tetrazine in Tumor: 3 h after injection
Experimental: as §1
Dual isotope biodistribution experiments were performed by injecting tumor bearing mice (n=3) intravenously with ^125I-labeled CC49-TCO constructs with and without PEG10 spacer (100 μg/100 μL per mouse, ca. […] 0.8 MBq). Three hours after tetrazine administration, the animals were anesthetized with isoflurane and sacrificed by cervical dislocation. Blood was withdrawn by heart puncture and organs and tissues of interest were harvested, blotted dry and weighed. The radioactivity of the samples was measured in a γ-counter along with standards to determine the % ID/gram. The energy windows were set to 10-80 keV and 100-510 keV for ^125I and ^111In, respectively.

[4] = 1 day pretargeting with CC49-23a
[5] = 4 days pretargeting with CC49-23a

## O=C(COC1CC/C=C/CCC1)ON1C(=O)CCC1=O (single isomer, unassigned) [44a, (E-Major)-2,5-dioxopyrrolidin-1-yl 2-(cyclooct-4-en-1-yloxy)acetate]
[1]
  Second order kinetic constant: 20640 ± 485 M⁻¹ s⁻¹

## O=C(COC1CC/C=C/CCC1)ON1C(=O)CCC1=O (single isomer, unassigned) [44b, (E-Minor)-2,5-dioxopyrrolidin-1-yl 2-(cyclooct-4-en-1-yloxy)acetate]
[1]
  Second order kinetic constant: 134800 ± 997 M⁻¹ s⁻¹

## O=C(ON1C(=O)CCC1=O)C(OC1CC/C=C/CCC1)c1ccccc1 (single isomer, unassigned) [46a, (E-Major)-2,5-dioxopyrrolidin-1-yl 2-(cyclooct-4-en-1-yloxy)-2-phenyl acetate]
[1]
  Second order kinetic constant: 28630 ± 1590 M⁻¹ s⁻¹

## O=C(ON1C(=O)CCC1=O)C(OC1CC/C=C/CCC1)c1ccccc1 (single isomer, unassigned) [46b, (E-Minor)-2,5-dioxopyrrolidin-1-yl 2-(cyclooct-4-en-1-yloxy)-2-phenylacetate]
[1]
  Second order kinetic constant: 163200 ± 2871 M⁻¹ s⁻¹

## CC(C)(OC1CC/C=C/CCC1)C(=O)ON1C(=O)CCC1=O (single isomer, unassigned) [49a, (E-Major)-2,5-dioxopyrrolidin-1-yl 2-(cyclooct-4-en-1-yloxy)-2-methylpropanoate]
[1]
  Second order kinetic constant: 25080 ± 3865 M⁻¹ s⁻¹

## CC(C)(OC1CC/C=C/CCC1)C(=O)ON1C(=O)CCC1=O (single isomer, unassigned) [49b, (E-Minor)-2,5-dioxopyrrolidin-1-yl 2-(cyclooct-4-en-1-yloxy)-2-methylpropanoate]
[1]
  Second order kinetic constant: 148500 ± 12040 M⁻¹ s⁻¹

## O=C(ON1C(=O)CCC1=O)c1ccc(OC2CC/C=C/CCC2)cc1 (single isomer, unassigned) [52a, (E-Major)-2,5-dioxopyrrolidin-1-yl 4-(cyclooct-4-en-1-yloxy)benzoate]
[1]
  Second order kinetic constant: 20930 ± 3735 M⁻¹ s⁻¹

## O=C(ON1C(=O)CCC1=O)c1ccc(OC2CC/C=C/CCC2)cc1 (single isomer, unassigned) [52b, (E-Minor)-2,5-dioxopyrrolidin-1-yl 4-(cyclooct-4-en-1-yloxy)benzoate]
[1]
  Second order kinetic constant: 333300 ± 625 M⁻¹ s⁻¹

## O=C(Nc1ccc(C(=O)ON2C(=O)CCC2=O)cc1)OC1CC/C=C/CCC1 (stereo not shown) [14a, (E-major)-2,5-dioxopyrrolidin-1-yl 4-(((cyclooct-4-en-1-yloxy)carbonyl)amino)benzoate]
[1]
  Second order kinetic constant, No Spacer: (14a) 11350 ± 550 M^−1s^−1

## O=C(Nc1ccc(C(=O)ON2C(=O)CCC2=O)cc1)OC1CC/C=C/CCC1 (stereo not shown) [14b, (E-minor)-2,5-dioxopyrrolidin-1-yl 4-(((cyclooct-4-en-1-yloxy)carbonyl)amino)benzoate]
[1]
  Second order kinetic constant, No Spacer: (14b) 66550 ± 8800 M^−1s^−1

## O=C(CCOCCOCCOCCOCCOCCOCCOCCOCCOCCOCCOCCOCCNC(=O)c1ccc(COC2CC/C=C/CCC2)cc1)ON1C(=O)CCC1=O (stereo not shown) [23b, (E-minor)-2,5-Dioxopyrrolidin-1-yl 1-(4-((cyclooct-4-en-1-yloxy)methyl)phenyl)-1-oxo-5,8,11,14,17,20,23,26,29,32,35,38-dodecaoxa-2-azahentetracontan-41-oate]
[1]
  Second order kinetic constant, PEG10 Spacer: (23b) 156400 ± 3100 M^−1s^−1

## O=C(CCOCCOCCOCCOCCOCCOCCOCCOCCOCCOCCOCCOCCNC(=O)c1ccc(NC(=O)OC2CC/C=C/CCC2)cc1)ON1C(=O)CCC1=O (stereo not shown) [27a, (E-major)-2,5-dioxopyrrolidin-1-yl 1-(4-(((cyclooct-4-en-1-yloxy)carbonyl)amino)phenyl)-1-oxo-5,8,11,14,17,20,23,26,29,32,35,38-dodecaoxa-2-azahentetracontan-41-oate]
[1]
  Second order kinetic constant, PEG10 Spacer: (27a) 11030 ± 250 M^−1s^−1

## O=C([O-])CN1CCN(CC(=O)[O-])CCN(CC(=O)NCCOCCOCCOCCOCCOCCOCCOCCOCCOCCOCCOCCNC(=O)CCCC(=O)Nc2ccc(-c3nnc(-c4ccccn4)nn3)nc2)CCN(CC(=O)[O-])CC1.[177Lu+3] [^177Lu-tetrazine 28]
LS174T tumor model [2]
  Tumor/Blood ratio, ^177Lu-tetrazine: 304 ± 80
  Tumor/Bone ratio, ^177Lu-tetrazine: 142 ± 59
  Tumor/Brain ratio, ^177Lu-tetrazine: 1674 ± 243
  Tumor/Heart ratio, ^177Lu-tetrazine: 187 ± 20
  Tumor/Kidney ratio, ^177Lu-tetrazine: 6 ± 2
  Tumor/Liver ratio, ^177Lu-tetrazine: 50 ± 10
  Tumor/Lung ratio, ^177Lu-tetrazine: 39 ± 8
  Tumor/Muscle ratio, ^177Lu-tetrazine: 328 ± 96
  Tumor/Spleen ratio, ^177Lu-tetrazine: 108 ± 22
  ^177Lu-tetrazine in Blood: 0.03 ± 0.00 % ID/gram
  ^177Lu-tetrazine in Bone: 0.08 ± 0.04 % ID/gram
  ^177Lu-tetrazine in Brain: 0.01 ± 0.00 % ID/gram
  ^177Lu-tetrazine in Heart: 0.05 ± 0.01 % ID/gram
  ^177Lu-tetrazine in Kidney: 1.50 ± 0.24 % ID/gram
  ^177Lu-tetrazine in Liver: 0.19 ± 0.02 % ID/gram
  ^177Lu-tetrazine in Lung: 0.24 ± 0.02 % ID/gram
  ^177Lu-tetrazine in Muscle: 0.03 ± 0.00 % ID/gram
  ^177Lu-tetrazine in Spleen: 0.09 ± 0.01 % ID/gram
  ^177Lu-tetrazine in Tumor: 9.25 ± 2.16 % ID/gram
LS174T tumor model [3]; [4]
  ^177Lu-tetrazine in Blood: 1.06 ± 0.34 % ID/gram
  ^177Lu-tetrazine in Bone: 0.11 ± 0.02 % ID/gram
  ^177Lu-tetrazine in Brain: 0.03 ± 0.02 % ID/gram
  ^177Lu-tetrazine in Heart: 0.20 ± 0.02 % ID/gram
  ^177Lu-tetrazine in Kidney: 1.73 ± 0.31 % ID/gram
  ^177Lu-tetrazine in Liver: 0.61 ± 0.15 % ID/gram
  ^177Lu-tetrazine in Lung: 0.32 ± 0.03 % ID/gram
  ^177Lu-tetrazine in Muscle: 0.06 ± 0.03 % ID/gram
  ^177Lu-tetrazine in Spleen: 0.30 ± 0.09 % ID/gram
  ^177Lu-tetrazine in Tumor: 3.09 ± 0.01 % ID/gram
LS174T tumor model [3]; 1 day pretargeting with CC49-23a, listed as 177Lu-tetrazine
  ^177Lu-tetrazine in Tumor: 3.09±0.01 % ID/gram
LS174T tumor model [3]; [5]
  ^177Lu-tetrazine in Blood: 0.04 ± 0.01 % ID/gram
  ^177Lu-tetrazine in Bone: 0.06 ± 0.01 % ID/gram
  ^177Lu-tetrazine in Brain: 0.01 ± 0.00 % ID/gram
  ^177Lu-tetrazine in Heart: 0.04 ± 0.00 % ID/gram
  ^177Lu-tetrazine in Kidney: 1.73 ± 0.22 % ID/gram
  ^177Lu-tetrazine in Liver: 0.31 ± 0.03 % ID/gram
  ^177Lu-tetrazine in Lung: 0.13 ± 0.05 % ID/gram
  ^177Lu-tetrazine in Muscle: 0.02 ± 0.01 % ID/gram
  ^177Lu-tetrazine in Spleen: 0.20 ± 0.00 % ID/gram
  ^177Lu-tetrazine in Tumor: 0.86 ± 0.39 % ID/gram
LS174T tumor model [3]; 4 days pretargeting with CC49-23a, listed as 177Lu-tetrazine
  ^177Lu-tetrazine in Tumor: 0.86±0.39 % ID/gram
LS174T tumor model [3]; ^177Lu-tetrazine administered 4 days after the mAb CC49-23a
  tumor-to-blood ratio (T/B): 21.3±4.0
LS174T tumor model [3]; ^177Lu-tetrazine, mice pre-treated with CC49-23a 24 h before injection of the tetrazine
  tumor-to-blood ratio (T/B): 3.1±1.0
